Patent US10561379B2, “In vivo positron emission tomography-based perfusion/blood pool imaging using labeled erythrocytes” (H. LEE MOFFITT CANCER CENTER AND RESEARCH INSTITUTE, INC., priority 2016, dated 2020)

Key:
human red blood cells = experiment: FDG labeling of human red blood cells, 5 minute incubation at room temperature (Example 1); assay type: cell-based
Experimental: 150 microCuries of FDG in a 100 microliter volume was incubated with 250 microliters of human red blood cells to a final solution volume of 500 microliters (NaCl/KCl/EDTA solution contains 140 mM NaCl, 4 mM KCl, 2.5 mM K2EDTA dihydrate). FDG incubation duration=5 minutes at room temperature. Triplicate samples were used. Samples were centrifuged 1000 g 10 minutes after 5 minute FDG incubation, and RBC pellet was washed twice with 1.0 ml of NaCl/KCl/EDTA solution. A sample of the collected supernatant and a pellet sample was counted in a gamma counter with 18-F gating. 3% incorporation rate=4.5 microCurie of incorporated FDG/250 microliters of human red blood cell=18 microCurie of FDG/1 ml human red blood cells. Thus, 60 milliliters of whole blood from a patient should yield approximately 432-486 microCuries of FDG labeled red blood cells. (Assumes average 40% female hematocrit and 45% male hematocrit).

human RBCs = experiment: FDG uptake by human RBCs (% total FDG incorporation, dose calibrator counting); assay type: cell-based; settings: for mean % total FDG incorporation: 30' 37° C. incubation with 37-74 MBq FDG (text b108)
Experimental: […] 30′, centrifuged 1000 g 10′, and washed twice in 4× volume 1×EDTA solution. […] Sample/wash aliquots were counted in an Atomlab 600 dose calibrator (Biodex) to measure % retained FDG.
Human red blood cell (RBC) preparation and FDG-RBC labeling: Packed human red blood cells collected in standard anticoagulant citrate dextrose (ACD) solution (either ≤24 hours post phlebotomy or ˜5 day post phlebotomy) were obtained from Zen-Bio, Inc. 370-740 Megabecquerel (MBq) (1 ml) USP grade 2-deoxy-2-(^18F)fluoro-D-glucose (FDG) were obtained from Cardinal Health. Vendor supplied human RBCs are centrifuged 1000 g 10′, and the remaining anticoagulant and buffy coat residual are gently aspirated. RBCs are then gently washed in a 4× volume of filter sterilized “1×EDTA” solution (140 mM NaCl, 4 mM KCl, 2.5 mM Ethylenediaminetetraacetic acid dipotassium salt dihydrate (K2EDTA dihydrate)), centrifuged at 1000 g 10′, and the wash is manually aspirated. […] Samples are then centrifuged at 1000 g 10′ and the supernatant is carefully aspirated. RBCs are then washed and centrifuged twice with 4× volumes of 1×EDTA solution. For experiments characterizing residual unincorporated FDG, a 3rd wash/centrifugation step was performed. […] Aliquots from all samples and washes are counted with the Atomlab™ 600 dose calibrator (Biodex Medical Systems, Inc.).

[1] = tested on: splenectomized NSG immunodeficient mouse; experiment: microPET imaging of mice injected with FDG-labeled human erythrocytes or free FDG (Example 2); assay type: in vivo; settings: tail vein catheter injection (≈47 microCuries FDG-labeled erythrocytes or ≈32 microCuries free FDG), 20-minute PET
Experimental: Approximately 47 microCuries of FDG-labeled human erythrocytes were injected via tail vein catheter into a splenectomized NSG immunodeficient mouse. The mouse was placed into a Siemens INVEON microPET scanner, and 18-F PET imaging of the mouse was performed over a 20-minute time period.
Approximately 32 microCuries of free FDG were injected via tail vein catheter into a second splenectomized NSG immunodeficient mouse. The mouse was placed into the Siemens INVEON microPET scanner, and 18-F PET imaging of the mouse was performed over a 20-minute time period.

[2] = tested on: splenectomized NSG immunodeficient mice; experiment: ECG-gated whole body microPET/CT imaging of NSG immunodeficient mice; assay type: in vivo, mouse; settings: for time activity curve (TAC) of the heart, pattern: observation period 20-30 minutes; for anatomic distribution of FDG in the heart (fused microPET/CT images) / whole body distribution of FDG activity on microPET image / urinary excretion of FDG (kidneys, bladder) on microPET image: tail vein injection; for whole body distribution of FDG activity on microPET image: injected activity differs per figure
Experimental: 4-6 wk old splenectomized NSG immunodeficient mice (Jax Lab) were fasted O/N and phlebotomized (200-250 μl), prior to microPET imaging with an INVEON PET/CT preclinical scanner (Siemens). […]
PET images were analyzed with INVEON workstation software (Siemens). Patlak compartment plot option was chosen. For 3D PET and 4D PET data sets, VOIs were selected manually based on corresponding CT images: heart, leg muscle, liver, kidney and brain.
ECG-gated whole body microPET imaging of NSG immunodeficient mice: 4-6 week old splenectomized NOD scid gamma (NSG™) immunodeficient mice were obtained from The Jackson Laboratory. Mice were placed in specialized housing for immunodeficient mouse in the Moffitt Cancer Center (MCC) vivarium. Approval for all animal experimentation was first obtained from the University of South Florida (USF) Institutional Animal Care and Use Committee (IACUC). All animal experimentation was performed in accordance to federal regulations and USF IACUC principles and procedures. Animal imaging was performed in the MCC Small Animal Imaging Laboratory with an INVEON PET/CT (Siemens Medical Inc., Knoxville, Tenn.) preclinical scanner. Mice are first fasted the night before microPET imaging and undergo phlebotomy of ≈200-250 μl whole blood via retro-orbital venous plexus puncture immediately prior to microPET imaging. Blood glucose from the phlebotomized blood is measured. A tail vein microcatheter is placed in each mouse under inhalational isoflurane anesthesia. […] The PET part of the system has 64 detector blocks with total field of view (FOV) 12.7 cm and a spatial resolution of 1.4 mm. […] The ECG signal in each mouse was detected with three flat electrodes placed in two front and one rear limbs of each animal (ground lead on a rear leg). […] The threshold for TTL cardiac gating signals was set in a rising mode of R-wave peak. The PET list-mode data were reconstructed using 3D-OSEM iterative algorithm with four iterations and eight subsets, with a final image volume of 256×256×256 voxels. Voxel effective dimensions were 1.4×1.4×1.4 mm. For each animal there are three data sets: standard 3-dimensional (3D) PET reconstruction, resulting in a motion-time average 3D PET image; dynamic 3D PET reconstruction with 30 frames; and the phase-based 4-dimensional (regular 3-dimensional plus time, 4D) PET cardiac reconstruction, with four cardiac gates binning. In all cases, CT attenuation correction was applied to the PET images.
PET images of the mice were analyzed using INVEON Workstation Software (Siemens Medical Inc., Knoxville, Tenn.). Vendor software-supplied Patlak compartment plot option was selected (Patlak et al., 1983). For 3D PET and 4D PET data sets multiple volumes of interest (VOI) were selected manually based on corresponding CT images including: heart, leg muscle, liver, kidney and brain. […] Dynamic activity curves were plotted for VOIs using dynamic 3D PET data set for each animal. The 4D PET data were used for defining cardiac function. First the heart was segmented on CT images based on anatomical features, after that segmented volume (cardiac PET VOI) was transferred into co-registered PET images.

2-deoxy-2-(^18F)fluoro-D-glucose [FDG]
incorporation rate (human red blood cells; 150 microCuries FDG, 250 microliters human red blood cells, 5 minutes at room temperature): 3% | FDG/1 ml human red blood cells (human red blood cells; 5 minutes at room temperature): 18 microCurie | incorporated FDG/250 microliters of human red blood cell (human red blood cells; 5 minutes at room temperature, 150 microCuries FDG): 4.5 microCurie | FDG labeled red blood cells yielded from 60 milliliters of whole blood from a patient (human red blood cells; extrapolated, assumes 40% female and 45% male hematocrit): 432-486 microCuries | FDG incorporated in packed RBCs on clinical translation of the labeling/wash protocol (human RBCs; 10 ml's packed RBCs, initial 740 MBq FDG, inventor's prediction): up to 370 MBq | mean % total FDG incorporation (human RBCs; 250 μl 1 day old RBCs): 85.3%±1.8% | % total FDG incorporation (human RBCs; 250 μl 1 day old human RBCs, 37° C., 30' (text b110)): 73.3%±3.6% | % total FDG incorporation (human RBCs; 250 μl 1 day old human RBCs, 37° C., 30 minutes (time course)): 78.3%±0.9 | % total FDG incorporation (human RBCs; 250 μl 1 day old human RBCs, 37° C., 1 hour (time course)): 85.0%±0.0% | % total FDG incorporation (human RBCs; 250 μl 1 day old human RBCs, 37° C., 2 hours (FIG. 3 legend)): 73.3%±3.6% | % total FDG incorporation (human RBCs; 250 μl 1 day old human RBCs, 37° C., 2 hours (time course)): 85.3%±0.3% | % total FDG incorporation (human RBCs; 250 μl 1 day old human RBCs, 2 hours (FIG. 4 legend)): 85.3%±1.8% | % total FDG incorporation (human RBCs; 250 μl 1 day old human RBCs, room temperature (~25° C.), 2 hours): 10.3%±1.1% | % total FDG incorporation (human RBCs; 250 μl 5 day old human RBCs, 2 hours (FIG. 4 legend)): 3.3%±0.2% | mean % total FDG incorporation (human RBCs; 5 day old RBCs): 3.3%±0.2% | internal FDG uptake (in words) (human RBCs; human RBCs collected and used ≈5 days after phlebotomy): negligible rate of internal FDG uptake | tracer distribution on PET image [1]: majority of free FDG uptake is seen in the heart muscle, bladder, and kidneys | time activity curve (TAC) of the heart, pattern [2]: increases steadily over the observation period of 20-30 minutes | time activity curve (TAC) of the heart, pattern ([2]; listed as free FDG): steady increase in FDG activity over time | anatomic distribution of FDG in the heart (fused microPET/CT images) [2]: marked myocardial uptake of FDG in the left ventricle | whole body distribution of FDG activity on microPET image ([2]; listed as free 18F-FDG): normal marked FDG uptake in the myocardium | whole body distribution of FDG activity on microPET image ([2]; listed as free FDG): intense FDG accumulation in the myocardium and brain | anatomic distribution of FDG in the heart (fused microPET/CT images) ([2]; listed as free 18F-FDG): intense physiologic FDG uptake by myocardium of the left ventricle | urinary excretion of FDG (kidneys, bladder) on microPET image ([2]; listed as free 18F-FDG): physiologic FDG excretion into the kidneys and bladder | urinary excretion of FDG (kidneys, bladder) on microPET image ([2]; listed as free FDG): marked urinary excretion in the kidneys and bladder
